Values quoted from earlier work in patent publication US8349312B2, “Proline substituted cyclosporin analogues” (Enanta Pharmaceuticals, Inc., priority 2009, dated 2013).

Experiments:
hepatitis C virus = settings: Paeshuyse et al., Antiviral Research 65(3):A41 (2005)
cyclophilin A = cyclophilin A (Homo sapiens, UniProt P62937)
cyclophilin A, sequence (P62937 whole entry, species assumed): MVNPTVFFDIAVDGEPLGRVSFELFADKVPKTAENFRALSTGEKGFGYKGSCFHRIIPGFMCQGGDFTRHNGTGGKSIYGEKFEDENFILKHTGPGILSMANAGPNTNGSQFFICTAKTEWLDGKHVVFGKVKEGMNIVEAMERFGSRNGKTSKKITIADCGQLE

SMILES: C/C=C/C[C@@H](C)[C@@H](O)[C@H]1C(=O)N[C@@H](CC)C(=O)N(C)[C@H](C)C(=O)N(CC)[C@@H](C(C)C)C(=O)N[C@@H](C(C)C)C(=O)N(C)[C@@H](CC(C)C)C(=O)N[C@@H](C)C(=O)N[C@H](C)C(=O)N(C)[C@@H](CC(C)C)C(=O)N(C)[C@@H](CC(C)C)C(=O)N(C)[C@@H](C(C)C)C(=O)N1C [DEBIO-025]
- inhibition of hepatitis C virus replication (hepatitis C virus): potent and selective inhibition
- binding affinity for cyclophilin A (cyclophilin A): potent binding affinity
